Test results: patent US6737383B1, “Herbicidal oxadiazolidines” (priority 1999, dated 2004)

Key:
rape = assay: Test B pre/postemergence rape; format: in vivo, Brassica napus
How it was run: (§1)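 Response is a visual 0-to-10 score relative to untreated plants, where 0 means no effect and 10 means complete control, taken twelve to sixteen days after application. Treatments went onto soil at planting and onto foliage of 1- to 4-leaf plants, using a surfactant-containing non-phytotoxic solvent.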

velvetleaf = assay: Test B pre/postemergence velvetleaf; format: in vivo, Abutilon theophrasti; details: for Plant response rating, Velvetleaf: Rate 250 g/ha
How it was run: as §1

smallflower flatsedge = assay: Test B flood test smallflower flatsedge; format: in vivo, Cyperus difformis
How it was run: (§2)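 Plants were grown to the 2-leaf stage before treatment with test chemical, then held in a greenhouse for twelve to sixteen days. Injury was visually rated against untreated controls on a 0–10 scale, where 0 is no effect and 10 is complete control.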

surinam grass = assay: Test B pre/postemergence surinam grass; format: in vivo, Brachiaria decumbens
How it was run: as §1

pigweed = assay: Test B pre/postemergence pigweed; format: in vivo, Amaranthus retroflexus
How it was run: as §1

corn = assay: Test B pre/postemergence corn; format: in vivo, Zea mays
How it was run: as §1

blackgrass = assay: Test B pre/postemergence blackgrass; format: in vivo, Alopecurus myosuroides
How it was run: as §1

morningglory = assay: Test B pre/postemergence morningglory; format: in vivo, Ipomoea hederacea
How it was run: as §1

giant foxtail = assay: Test B pre/postemergence giant foxtail; format: in vivo, Setaria faberii
How it was run: as §1

sugar beet = assay: Test B pre/postemergence sugar beet; format: in vivo, Beta vulgaris; details: for Plant response rating, Sugarbeets: Rate 250 g/ha
How it was run: as §1

purple nutsedge = assay: Test B pre/postemergence purple nutsedge; format: in vivo, Cyperus rotundus
How it was run: as §1

duck salad = assay: Test B flood test duck salad; format: in vivo, Heteranthera limosa
How it was run: as §2

bedstraw = assay: Test B pre/postemergence bedstraw; format: in vivo, Galium aparine
How it was run: as §1

bamyardgrass = assay: Test B flood test barnyardgrass; format: in vivo, Echinochloa crus-galli
How it was run: as §2

rice = assay: Test B flood test rice; format: in vivo, Oryza sativa
How it was run: as §2

soybean = assay: Test B pre/postemergence soybean; format: in vivo, Glycine max
How it was run: as §1

[1] = Postemergence, Rate 125 g/ha, scale of 0 to 10 where 0 is no effect and 10 is complete control
[2] = Postemergence, Rate 250 g/ha, scale 0 to 10, 0 no effect, 10 complete control
[3] = Preemergence, Rate 62 g/ha, scale 0 to 10 (0 no effect, 10 complete control)
[4] = Preemergence, Rate 125 g/ha, scale 0 to 10 (0 no effect, 10 complete control)
[5] = Preemergence, Rate 250 g/ha, scale of 0 to 10 where 0 is no effect and 10 is complete control
[6] = Preemergence, Rate 500 g/ha, scale 0 to 10 (0 no effect, 10 complete control)
[7] = Rate 62 g/ha, Postemergence, scale of 0 to 10 where 0 is no effect and 10 is complete control
[8] = Rate 500 g/ha, Postemergence, scale 0 to 10, 0 no effect, 10 complete control
[9] = Preemergence, Rate 125 g/ha, 0 is no effect, 10 is complete control
[10] = Preemergence, scale of 0 to 10 where 0 is no effect and 10 is complete control
[11] = Postemergence, scale 0 to 10, 0 is no effect, 10 is complete control
[12] = Rate 250 g/ha, headed Pre-emergence (flood test species), scale 0 to 10 (0 no effect, 10 complete control)
[13] = Rate 500 g/ha, headed Pre-emergence (flood test species), scale 0 to 10 (0 no effect, 10 complete control)
[14] = Rate 2000 g/ha, Pre-emergence (as headed), scale 0 to 10
[15] = Rate 250 g/ha, Postemergence, scale 0 to 10, 0 is no effect, 10 is complete control
[16] = Rate 1000 g/ha, Pre-emergence (as headed), scale 0 to 10

SMILES: CC(C)N(C(=O)n1oc(=O)n(Cc2cccs2)c1=O)c1ccccc1 [Compound 103]
- Rape plant response rating (rape; [1]): 0
- Rape plant response rating (rape; [2]): 1
- Rape plant response rating (rape; [3]): 0
- Plant response rating, Rape (rape; [4]): 0
- Plant response rating, Rape (rape; [5]): 0
- Rape plant response rating (rape; [6]): 0
- Rape plant response rating (rape; [7]): 0
- Rape plant response rating (rape; [8]): 3
- Velvetleaf plant response rating (velvetleaf; [1]): 0
- Velvetleaf plant response rating (velvetleaf; [3]): 0
- Velvetleaf plant response rating (0 to 10 scale) (velvetleaf; [9]): 0
- Plant response rating, Velvetleaf (velvetleaf; [10]): 3
- Velvetleaf plant response rating (velvetleaf; [6]): 3
- Velvetleaf plant response rating (velvetleaf; [7]): 0
- Plant response rating, Velvetleaf (velvetleaf; [11]): 1
- Velvetleaf plant response rating (velvetleaf; [8]): 4
- S. Flatsedge plant response rating (smallflower flatsedge; Pre-emergence, Rate 1000 g/ha, scale 0 to 10 (0 no effect, 10 complete control)): 0
- S. Flatsedge plant response rating (smallflower flatsedge; [12]): 0
- Plant response rating, S. Flatsedge (smallflower flatsedge; [13]): 0
- S. Flatsedge plant response rating (smallflower flatsedge; [14]): 0
- B. signalgrass plant response rating (surinam grass; Postemergence, Rate 62 g/ha, scale 0 to 10, 0 is no effect, 10 is complete control): 0
- B. signalgrass plant response rating (surinam grass; [2]): 0
- B. signalgrass plant response rating (surinam grass; [3]): 1
- Plant response rating, B. signalgrass (surinam grass; [4]): 5
- Plant response rating, B. signalgrass (surinam grass; [5]): 7
- B. signalgrass plant response rating (surinam grass; [6]): 7
- B. signalgrass plant response rating (surinam grass; Rate 125 g/ha, Postemergence, scale 0 to 10, 0 no effect, 10 complete control): 0
- B. signalgrass plant response rating (surinam grass; Rate 500 g/ha, Postemergence, scale of 0 to 10 where 0 is no effect and 10 is complete control): 2
- Redroot pigweed plant response rating (pigweed; [1]): 0
- Redroot pigweed plant response rating (pigweed; [3]): 0
- Plant response rating, Redroot pigweed (pigweed; [4]): 0
- Plant response rating, Redroot pigweed (pigweed; [5]): 6
- Redroot pigweed plant response rating (pigweed; [6]): 7
- Redroot pigweed plant response rating (pigweed; [7]): 0
- Plant response rating, Redroot pigweed (pigweed; [15]): 2
- Redroot pigweed plant response rating (pigweed; [8]): 4
- Corn plant response rating (corn; [1]): 0
- Corn plant response rating (corn; [2]): 0
- Corn plant response rating (corn; [3]): 0
- Plant response rating, Corn (corn; [4]): 0
- Plant response rating, Corn (corn; [5]): 0
- Corn plant response rating (corn; [6]): 0
- Corn plant response rating (corn; [7]): 0
- Corn plant response rating (corn; [8]): 2
- Blackgrass plant response rating (blackgrass; [1]): 1
- Blackgrass plant response rating (blackgrass; [2]): 4
- Blackgrass plant response rating (blackgrass; [3]): 0
- Plant response rating, Blackgrass (blackgrass; [4]): 0
- Plant response rating, Blackgrass (blackgrass; [5]): 3
- Blackgrass plant response rating (blackgrass; [6]): 5
- Blackgrass plant response rating (blackgrass; [7]): 0
- Blackgrass plant response rating (blackgrass; [8]): 4
- Morningglory plant response rating (morningglory; [1]): 10
- Morningglory plant response rating (morningglory; [2]): 10
- Morningglory plant response rating (morningglory; [3]): 0
- Plant response rating, Morningglory (morningglory; [4]): 0
- Plant response rating, Morningglory (morningglory; [5]): 0
- Morningglory plant response rating (morningglory; [6]): 0
- Morningglory plant response rating (morningglory; [7]): 8
- Morningglory plant response rating (morningglory; [8]): 10
- Giant foxtail plant response rating (giant foxtail; [1]): 1
- Giant foxtail plant response rating (giant foxtail; [2]): 3
- Giant foxtail plant response rating (giant foxtail; [3]): 8
- Plant response rating, Giant foxtail (giant foxtail; [4]): 9
- Plant response rating, Giant foxtail (giant foxtail; [5]): 9
- Giant foxtail plant response rating (giant foxtail; [6]): 9
- Giant foxtail plant response rating (giant foxtail; [7]): 0
- Giant foxtail plant response rating (giant foxtail; [8]): 7
- Sugarbeets plant response rating (sugar beet; [1]): 2
- Sugarbeets plant response rating (sugar beet; [3]): 0
- Sugarbeets plant response rating (0 to 10 scale) (sugar beet; [9]): 0
- Plant response rating, Sugarbeets (sugar beet; [10]): 0
- Sugarbeets plant response rating (sugar beet; [6]): 4
- Sugarbeets plant response rating (sugar beet; [7]): 1
- Plant response rating, Sugarbeets (sugar beet; [11]): 2
- Sugarbeets plant response rating (sugar beet; [8]): 3
- Nutsedge plant response rating (purple nutsedge; [1]): 0
- Nutsedge plant response rating (purple nutsedge; [2]): 0
- Nutsedge plant response rating (purple nutsedge; [3]): 0
- Plant response rating, Nutsedge (purple nutsedge; [4]): 0
- Plant response rating, Nutsedge (purple nutsedge; [5]): 0
- Nutsedge plant response rating (purple nutsedge; [6]): 0
- Nutsedge plant response rating (purple nutsedge; [7]): 0
- Nutsedge plant response rating (purple nutsedge; [8]): 0
- Ducksalad plant response rating (duck salad; [12]): 0
- Plant response rating, Ducksalad (duck salad; [13]): 0
- Ducksalad plant response rating (duck salad; [16]): 0
- Ducksalad plant response rating (duck salad; [14]): 0
- Bedstraw plant response rating (bedstraw; [2]): 0
- Bedstraw plant response rating (bedstraw; [3]): 0
- Plant response rating, Bedstraw (bedstraw; [4]): 0
- Plant response rating, Bedstraw (bedstraw; [5]): 0
- Bedstraw plant response rating (bedstraw; [6]): 0
- Barnyardgrass plant response rating (bamyardgrass; [12]): 0
- Plant response rating, Barnyardgrass (bamyardgrass; [13]): 0
- Barnyardgrass plant response rating (bamyardgrass; [16]): 0
- Barnyardgrass plant response rating (bamyardgrass; Rate 2000 g/ha, Pre-emergence (as headed), scale 0 to 10, 0 no effect, 10 complete control): 0
- Rice plant response rating (rice; [12]): 0
- Plant response rating, Rice (rice; [13]): 0
- Rice plant response rating (rice; [16]): 0
- Rice plant response rating (rice; [14]): 0
- Soybean plant response rating (soybean; [1]): 4
- Soybean plant response rating (soybean; [3]): 0
- Plant response rating, Soybean (soybean; [4]): 0
- Plant response rating, Soybean (soybean; [5]): 0
- Soybean plant response rating (soybean; [6]): 0
- Soybean plant response rating (soybean; [7]): 4
- Plant response rating, Soybean (soybean; [15]): 4
- Soybean plant response rating (soybean; [8]): 6
